In PMC12040169 (PLOS Biology, 2025):
Where “and” joins values, the source holds several entries; their conditions need not be identical. Identical values can stand only once.

Assays:
HeLa = conditions: bulk resorufin, single well, 28.5 h, 10 µM, Bulk resorufin fluorescence
in vitro = conditions: human, hela cells, % viability

| SMILES | % viability (HeLa) | viability at 28.5 h, 10 µM (in vitro) | viability at 28.5 h, 10 µM (in vitro; bulk resorufin, single well) |
| --- | --- | --- | --- |
| CCCC(=O)NCc1ccc(OC2CCNCC2)cc1 [CBK024489T] | 112% | 95.6% |  |
| CCCC(=O)Nc1cc2ccccc2c(N2CCNCC2)n1 [CBK024608T] | 104% | 102% |  |
| CC(C)(C)c1nc(CN2CCOCC2)ccc1O [CBK026614C] | 111% | 112% |  |
| CC(C(=O)Nc1cncc(OC2CCNCC2)n1)c1ccccc1 (stereo not shown) [CBK026733T] | 110% | 99.2% |  |
| Cc1cc(C(NC(C)(C)C)C(=O)O)cc(C)c1O (stereo not shown) [CBK027143] | 90.9% | 86.6% |  |
| COC(=O)c1ccc(-c2nc3nnc(C)n3[nH]2)cc1 [CBK027508] | 87.7% | 103% |  |
| CSc1ccc(CN2CCN(Cc3ccc(Br)cc3)CC2)cc1 [CBK027856] | 96.4% |  | 79.2% |
| CC(C)[C@@H](CO)Nc1nccnc1-c1cccc(C(=O)O)c1 [CBK036665] | 93% | 85.6% |  |
| Cc1cc(-c2nccnc2NCCCN2CCCC2=O)cc(C)c1O [CBK037632] | 98% | 94.1% |  |
| Cc1nn(C)c(N2CCNCC2)c1NC(=O)C1CCC1 [CBK045923T] | 96.2% | 91.8% |  |
| CCCC(=O)Nc1c(C)nn(C)c1N1CCNCC1 [CBK045924T] | 102% | 87.2% |  |
| CN1CCN(S(=O)(=O)c2cccc3cccnc23)CC1 [CBK051241] | 93.2% | 106% |  |
| Nc1ccc2cc(-c3ccccc3)cnc2n1 [CBK061881] | 94.9% | 81.7% |  |
| Cc1cc(CNS(=O)(=O)c2sc3ccc(Cl)cc3c2C)no1 [CBK062277] | 92.3% | 109% |  |
| NC(=O)CSc1nnc(-c2ccc(Cl)cc2)o1 [CBK068597] | 89.3% | 105% |  |
| CCOC(=O)C1=C(C)NC(=O)NC1c1ccc(Cl)cc1Cl (stereo not shown) [CBK072057] | 91% | 93.2% |  |
| CCCOc1cccc(C(=O)Nc2cccc(-c3nc4ncccc4o3)c2C)c1 [CBK072326] | 106% | 97.9% |  |
| CC(C)Nc1nc(-c2cccnc2)nc2ccccc12 [CBK073006] | 94.6% and 102% | 91.1% |  |
| O=C(CSc1nc2ccccc2[nH]1)Nc1ccccc1 [CBK073089] | 91.6% | 110% |  |
| O=S(=O)(Nc1ncc(Br)c2cccnc12)c1ccc(-c2ccccc2)cc1 [CBK073885] | 110% | 98.8% |  |
| COc1cc(CNCc2cccnc2)cc(Br)c1OCc1ccc(Cl)cc1 [CBK074596C] | 95.5% | 107% |  |
| O=C(O)CCCC(=O)N1CCN(Cc2ccc3c(c2)OCO3)CC1 [CBK074752] | 80.8% | 99.3% |  |
| Nc1nc2cccnc2cc1-c1cccc(OCc2ccccc2)c1 [CBK081206] | 105% | 99.2% |  |
| N#CCCCN1CCN(c2nccnc2OC2CCCCC2)CC1 [CBK082841T] | 107% | 87.4% |  |
| CCC1CCCCN1C(=O)c1ccc(C(=O)NC)cc1 (stereo not shown) [CBK083371] | 103% | 95.6% |  |

| SMILES | % viability (HeLa) | viability at 28.5 h, 10 µM (in vitro) | viability at 28.5 h, 10 µM (in vitro; bulk resorufin, single well) |
| --- | --- | --- | --- |
| COc1ccc(CN2CCCN(c3nccc(OCCN4CCOCC4)n3)CC2)cc1 [CBK083932] | 108% | 104% |  |
| O=C1CCC(=O)N1CCOc1nccnc1OC1CCN(Cc2cccnc2)CC1 [CBK084339] | 89.7% | 107% |  |
| Clc1ccc(CN2CCC(Oc3cncc(OCC4COc5ccccc5O4)n3)C2)cc1Cl (stereo not shown) [CBK084361] | 90.5% | 107% |  |
| c1cncc(COc2cncc(OC3CCN(CCc4c[nH]c5ccccc45)C3)n2)c1 (stereo not shown) [CBK084471] | 113% | 111% |  |
| Cc1onc(-c2ccccc2)c1C(=O)NCCNC(=O)c1c(-c2ccccc2)noc1C [CBK085092] | 108% | 106% |  |
| CS(=O)(=O)Nc1cc2ccccc2c(-c2ccc(S(C)(=O)=O)cc2)n1 [CBK085756] | 107% | 95.6% |  |
| CC(C)NC(=O)n1nccc1-c1cc(-c2ccccc2)no1 [CBK086581] | 82.6% | 102% |  |
| CC(=O)c1sc(NC(=O)c2ccc(Cl)cc2)nc1C [CBK087686] | 88.4% | 86.7% |  |
| Nc1nn2c(c1Cc1c(Cl)cccc1Cl)OCCCC2 [CBK089335] | 86.2% | 91.8% |  |
| CC(C)Nc1cc(Sc2ccc(Cl)c(Cl)c2)ncn1 [CBK089500] | 83.3% | 90.8% |  |
| COc1ccc2[nH]cc(CC(=O)N3CCC(C#N)(c4ccccc4)CC3)c2c1 [CBK091403] | 105% |  | 96.6% |
| O=C(O)c1cccc(Sc2ncccc2C(F)(F)F)c1 [CBK093589] | 108% | 103% |  |
| FC(F)(F)c1ccc(Sc2ccccn2)nc1 [CBK093785] | 111% | 100% |  |
| Cc1ccc(S(=O)(=O)N2CCN(c3ccc(Cl)c(Cl)c3)CC2)c(C)c1 [CBK099298] | 118% | 111% |  |
| CCOC(=O)CSc1nc2ccccc2nc1NC(C)C [CBK107166] | 111% | 101% |  |
| O=C(NCCN1CCCC1)c1cc2cc(F)ccc2[nH]1 [CBK107278] | 105% | 106% |  |
| Cc1cc(-c2cncc(NCCc3c[nH]c4ccccc34)n2)cc(C)c1O [CBK107896] | 83% | 101% |  |
| FC(F)(F)c1cccc(-c2cnn(-c3ccncc3)n2)c1 [CBK112668] | 93.6% | 102% |  |
| NCCCOc1nc2ccccc2nc1C(F)(F)F [CBK115295] | 109% | 96.8% |  |
| Fc1ccc(COc2cc(N3CCCC3)ncn2)cc1 [CBK115675] | 96.4% | 109% |  |
| O=C(O)C1Cc2c([nH]c3ccccc23)C(c2ccc(Cl)cc2Cl)N1 (stereo not shown) [CBK115930] | 96.2% | 88.5% |  |
| O=C(O)CCc1ccc(-c2cccs2)n1-c1cc(Cl)ccc1O [CBK131890] | 106% | 104% |  |
| N#Cc1cccc(-c2ccc3c(c2)COC(C2CCN(C(=O)OCc4ccccc4)CC2)O3)c1 (stereo not shown) [CBK144640] | 93% | 101% |  |
| COc1cccc2sc(NC(=O)c3ccc4c(c3)OCCO4)nc12 [CBK149285] | 92.1% | 99.1% |  |
| CCN(Cc1ccccc1)C(=O)NCc1cc(C)on1 [CBK155211] | 92.6% | 106% |  |

| SMILES | % viability (HeLa) | viability at 28.5 h, 10 µM (in vitro) | viability at 28.5 h, 10 µM (in vitro; bulk resorufin, single well) |
| --- | --- | --- | --- |
| CCN(Cc1ccccc1)C(=O)NCc1cccc(C(F)(F)F)c1 [CBK155216] | 96.1% | 110% |  |
| N#CCCN(C(=O)NC(c1ccccc1)c1ccccc1)C1CCCCC1 [CBK156354] | 104% | 98.7% |  |
| O=C(O)CCCNc1ccc(S(=O)(=O)N2CCCCC2)cc1 [CBK261001] | 90.5% | 96.7% |  |
| O=C(O)c1ccc(CN(c2ccccc2)S(=O)(=O)c2ccccc2)cc1 [CBK262406] | 82.8% | 93.3% |  |
| COc1ccc(-c2cc(C3CC3)nc(SCC(=O)O)c2C#N)cc1 [CBK262690] | 90.1% and 95% | 91.3% |  |
| CCn1cc(C(=O)NN)c(=O)c2cc(F)c(N3CCOCC3)cc21 [CBK263050] | 107% | 99.9% |  |
| Cc1cc2c(cc1C)NC(CC(=O)Nc1ccc(Cl)cc1)C(=O)N2 (stereo not shown) [CBK263245] | 90.5% | 83.4% |  |
| O=C(CN1C(=O)C2CCCCC2C1=O)Nc1ccccc1C(=O)O (stereo not shown) [CBK264130] | 108% | 91.5% |  |
| COc1ccccc1CC(=O)Nc1ccc(O)cc1C(=O)O [CBK264305] | 91.2% | 105% |  |
| O=C(CC1Nc2ccccc2NC1=O)Nc1ccccc1 (stereo not shown) [CBK265365] | 103% | 99.8% |  |
| CC1CCc2c(sc3ncnc(SCC(=O)N4CCOCC4)c23)C1 (stereo not shown) [CBK266192] | 111% | 105% |  |
| COc1ccc(NC(=O)Nc2ccncc2)c(OC)c1 [CBK266973] | 93.8% | 95.5% |  |
| O=C(O)c1ccc(S(=O)(=O)Nc2ccc(O)c(-c3c(O)ccc4ccccc34)c2)cc1 [CBK267667] | 94.7% | 108% |  |
| O=C(O)C1CCN(C2CC(=O)N(CCc3ccccc3)C2=O)CC1 (stereo not shown) [CBK269100] | 97.3% | 97.1% |  |
| Cc1nn(CC(C)C(=O)O)c(C)c1Br (stereo not shown) [CBK269756] | 86.7% | 92.4% |  |
| Cc1ccc(CN2CCNC(=O)C2CC(=O)O)o1 (stereo not shown) [CBK269966] | 91.7% | 91.8% |  |
| Cc1c2c(=O)n(-c3ccccc3)[nH]c2cc(=O)n1CCc1ccccc1 [CBK269995] | 92.7% and 109% | 101% |  |
| O=C(O)CC1C(=O)NCCN1Cc1cccc(Oc2ccccc2)c1 (stereo not shown) [CBK270023] | 103% | 91.4% |  |
| CCC(Sc1nc(C)c(Cc2ccccc2)c(=O)[nH]1)C(=O)O (stereo not shown) [CBK270058] | 91.7% | 91.2% |  |
| Cc1nnc2c(N3CCNCC3)nc3ccccc3n12 [CBK270224] | 75.4% | 89% |  |
| O=C1CCCc2c1nc(-c1ccccc1Cl)n2O [CBK271948] | 82.2% | 89.5% |  |
| CCCC(=O)N1CCC[C@@H](Cn2nc(-c3cccs3)ccc2=O)C1 [CBK282245] | 98% | 88.5% |  |
| c1cnc2c(c1)cc([C@@H]1CCCO1)n2CCN1CCCCC1 [CBK282273] | 109% | 101% |  |
| CCN(CC)C(=O)Cn1c([C@@H]2CCCO2)cc2cccnc21 [CBK282283] | 90.4% | 105% |  |
